Entries after “also recorded” stand apart in the source; their conditions may differ. Like-named read-outs stand apart in the source and are kept apart here.
Key:
[1] = test system: K562 cells over-expressing eIF4E; experiment: Cell cytotoxicity assay (CellTiter-Glo); format: cell-based; details: for change of IC50 with treatment duration, K562 cells over-expressing eIF4E: 48 hours extended to 6 days
Description: (§1) Cancer cell lines, MV-4-11 (leukemia), P116.c139 (acute T cell leukemia) and D1.1 (acute T cell leukemia), were purchased from ATCC and cultured according to supplier's recommendations. K562 cells (myelogenous leukemia) over-expressing eIF4E, were also used for the cytotoxicity assay. For cells treated for 48 hours, 5000 cells were seeded in 70 μl of growth medium in black, flat-bottom 96-well plate. For cells treated for six days, 1000 cells were seeded in 70 μl of growth medium in black, flat-bottom 96-well plate. […] 50 μl of the diluted compounds was added to the cells and incubated at 37° C. in 5% CO2. After 48 hours or six days treatment, cell viability was determined by CellTiter-Glo Luminescent Cell Viability Assay (Promega, Madison, Wis.). 120 μl of the reagent was added to the cells and luminescence was measured using Tecan Safire Reader. Data was analysed with Graphpad Prism software and the figures represented indicate the half maximal inhibitory concentration (IC50). Error bars denote standard deviation (SD).

D1.1 cells = experiment: Cell cytotoxicity assay (CellTiter-Glo); format: cell-based
Description: as §1

MV-4-11 cells = experiment: Cell cytotoxicity assay (CellTiter-Glo); format: cell-based
Description: as §1

P116.c139 cells = experiment: Cell cytotoxicity assay (CellTiter-Glo); format: cell-based
Description: as §1

[2] = test system: eIF4E phosphorylation in BC GMPs; details: background section; cited from earlier work
[3] = test system: CD34+ BC-CML primary cells; details: background section; including cells carrying T315I mutation; cited from earlier work
[4] = test system: nuclear beta-catenin in BC-CML cells; details: background section; cited from earlier work
BC CD34+ CML cells = details: in vitro treatment of the cells; background section; cited from earlier work
[5] = test system: TNF production by macrophage; details: TLR agonist stimulation; literature; cited from earlier work
[6] = test system: patient-derived BC cells in NSG mice; details: in vivo treatment for three consecutive weeks; CGP57380 40 mg/kg/d, dasatinib 5 mg/kg/d; background section; cited from earlier work
MNK2 = MNK2 (Homo sapiens (Human), UniProt Q9HBH9); experiment: In vitro MNK kinase assay (Caliper LabChip mobility shift); format: biochemical; details: enzymatic, 250 μM ATP; read-out: IC50 Mnk2
[7] = test system: BCR-ABL activity (phosphorylation of CrKl) in K562 cells; experiment: Western blot of CrKl phosphorylation in K562 cells; format: cell-based
Description: (§2) K562 cell line was obtained from the ATCC, and grown in RPMI supplemented with 10% FCS, L-glutamine, and penicillin/streptomycin.
(§3) Exponentially growing cells were plated at 2×10^5 cells/ml, and whole cell lysate processed for western blot analysis using antibodies recognizing eIF4E, phospho-eIF4E (Cell signaling Technology),

MNK1 = MNK1 (Homo sapiens, UniProt Q9BUB5); experiment: In vitro MNK kinase assay (Caliper LabChip mobility shift); format: biochemical; details: enzymatic, 1.2 mM ATP; read-out: IC50 Mnk1
[8] = test system: eIF4E phosphorylation in K562 cells; experiment: Western blot of eIF4E phosphorylation in BC-CML cell line; format: cell-based; details: various concentrations, 24 h
Description: as §2, §3

[9] = test system: nuclear beta-catenin in BC-CML cells; experiment: Immunofluorescence analysis of nuclear active beta-catenin; format: cell-based, human
Text: Cord Blood (CB) samples were purchased from the Singapore Cord Blood bank. CML samples were the Singapore General Hospital after signed informed consent under local IRB-approved procedures. MNCs were obtained using Ficoll separation, and CD34^+ cells selected by immunomagnetic beads (Miltenyi Biotech, Germany).
Cells (1×10^5) were cytospun onto glass slides, fixed with 4% paraformaldehye, and stained with mouse monoclonal antibodies against activated β-catenin (clone 8E7, Millipore, UK), or rabbit monoclonal antibodies against phospho-eIF4E S209 (EP2151Y, Abeam, UK). Slides were then stained with either PE-conjugated anti-mouse or FITC-conjugated anti-rabbit antibodies. Images were obtained with the use of a fluorescence microscope (Olympus IX71S1F3) at 40× magnification.

Chain of MNK2 (Q9HBH9 84-388): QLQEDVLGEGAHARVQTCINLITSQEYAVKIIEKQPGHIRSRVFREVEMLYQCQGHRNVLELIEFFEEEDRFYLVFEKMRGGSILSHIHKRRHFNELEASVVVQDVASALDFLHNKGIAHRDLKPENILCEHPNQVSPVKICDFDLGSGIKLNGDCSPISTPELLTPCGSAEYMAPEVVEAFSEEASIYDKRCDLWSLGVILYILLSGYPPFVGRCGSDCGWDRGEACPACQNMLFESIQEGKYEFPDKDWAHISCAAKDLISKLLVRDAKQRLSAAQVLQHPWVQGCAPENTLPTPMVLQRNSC

Compound | eIF4E phosphorylation in BC GMPs [2] | ability of CD34+ BC cells to serially replate for more than 8 weeks in methylcellulose [3] | serial transplantation of BC cells in NSG mice at 16 weeks [6] | change of IC50 with treatment duration, K562 cells over-expressing eIF4E [1] | IC50 (MNK2) [µM] | BCR-ABL activity (phosphorylation of CrKl) [7] | IC50 (MNK1) [µM] | eIF4E phosphorylation [8] | nuclear beta-catenin accumulation [9] | also measured
CC(=O)C1=C(O)C=C2Oc3c(C(N)=O)c(O)cc(O)c3[C@]2(C)C1=O [Cercosporamide, reference compound] | – | – | – | – | – | – | – | – | – | IC50 ([1]; 48 hours, read-out: IC50 after 48 hours of treatment, K562): > 50 µM; IC50 ([1]; 6 days, read-out: IC50 after 6 days of treatment, K562): 4.3 µM; IC50 (D1.1 cells; 48 hours, read-out: IC50 after 48 hours of treatment, D1.1): 20.2 µM; IC50 (D1.1 cells; 6 days, read-out: IC50 after 6 days of treatment, D1.1): 17.3 µM; IC50 (MV-4-11 cells; 48 hours, read-out: IC50 after 48 hours of treatment, MV-4-11): > 50 µM; IC50 (MV-4-11 cells; 6 days, read-out: IC50 after 6 days of treatment, MV-4-11): 4 µM; IC50 (P116.c139 cells; 48 hours, read-out: IC50 after 48 hours of treatment, P116.c139): > 50 µM; IC50 (P116.c139 cells; 6 days, read-out: IC50 after 6 days of treatment, P116.c139): 4.9 µM
Cc1ccc(NC(=O)c2ccc(CN3CCN(C)CC3)cc2)cc1Nc1nccc(-c2cccnc2)n1 [imatinib] | not | only partially impaired | – | – | – | – | – | – | – | –
Nc1ncnc2n[nH]c(Nc3ccc(F)cc3)c12 [CGP57380] | inhibited eIF4E phosphorylation | impaired the ability of CD34+ BC cells | prevented BC cells from serially transplanting NSG mice | – | – | – | – | – | – | accumulation of active nuclear beta-catenin in BC GMPs [4]: preventes accumulation of active nuclear beta-catenin; ability of BC CD34+ CML cells to engraft NSG mice (BC CD34+ CML cells): retarded their ability to engraft NSG mice; production / release of TNF by macrophage [5]: inhibited by MNK kinases inhibitor CGP57380 in a dose dependant fashion; also recorded: inhibits the release of TNF alpha by macrophage
CN1CCN(C(=O)c2ccc(-c3ccn4ncc(-c5ccc(C#N)cc5)c4n3)cc2)CC1 [Example 176, 4-(5-(4-(4-methylpiperazine-1-carbonyl)phenyl)pyrazolo[1,5-a]pyrimidin-3-yl)benzonitrile] | – | – | – | reduced by more than half | < 0.1 | decrease in BCR-ABL activity | < 0.1 | decrease in eIF4E phosphorylation; also recorded: prevent eIF4E phosphorylation | decrease in nuclear beta-catenin accumulation | –
N#Cc1ccc(-c2cnc3ccc(-c4ccc(C(=O)N5CCOCC5)cc4)nn23)cc1 [Example 62, 4-(6-(4-(morpholine-4-carbonyl)phenyl)imidazo[1,2-b]pyridazin-3-yl)benzonitrile] | – | – | – | reduced by more than half | < 0.1 | decrease in BCR-ABL activity | < 0.1 | decrease in eIF4E phosphorylation; also recorded: prevent eIF4E phosphorylation | decrease in nuclear beta-catenin accumulation | –
Cc1nc(Nc2ncc(C(=O)Nc3c(C)cccc3Cl)s2)cc(N2CCN(CCO)CC2)n1 [dasatinib] | not | only partially impaired | not | – | – | – | – | – | – | –

Reference: patent US9908886B2 (Agency for Science, Technology and Research, priority 2012, dated 2018)
